From US8022075B2, “Diagnostic and remedy for disease caused by amyloid aggregation and/or deposition” (Fujifilm Ri Pharma Co., Ltd., priority 2005, dated 2011)

Columns and labels:
[1] = In vitro metabolism rate by use of liver microsomes, rat; format: in vitro ADME, Male Wistar Rat
Experimental: (§1) Liver microsomes (Pooled human Liver Microsomes, Male CD1 mouse, Male Wistar Rat), which is a commercial product of In Vitro Technologies, were employed.
(§2) Each of compound 23, compound 24, and [^125I]-IMPY was dissolved in Milli Q water, to thereby adjust the concentration to 11 μCi/mL (5 nmol/L).
(§3) To a mixture of 100 mM glucose 6-phosphate and […] NADPH solution, an equal volume of […] magnesium chloride was added. Glucose 6-phosphate dehydrogenase was employed at a final concentration of 10 unit/mL. These components were reconstituted upon use.
(§4) Method: To each of the glass test tubes, […] EDTA/0.33M potassium phosphate buffer (150 μL), Milli Q water (200 μL), 0.005 or 0.5 mg protein/mL microsome suspension (50 μL), and a test substance solution (50 μL) were added. The mixture was preliminarily incubated at 37° C. for two minutes. The above-prepared NADPH-generating system (50 μL) was added, to thereby initiate reaction. At an arbitrary point of time, an equal volume of acetonitrile was added, to thereby terminate the reaction. The reaction mixture (50 μL) was sampled into a glass tube for determining the metabolism amount, and saturated ascorbic acid ethanol solution (25 μL) was added thereto. The sample was developed by means of a reverse phase TLC (Whatman KC18F) with 80% methanol. The TLC was brought into contact with an imaging plate, and radioactivity was detected by means of BAS-1800 (product of Fuji Film Co., Ltd.). The metabolism rate was calculated through analysis by means of GraphPad Prism Ver. 4.00 (GraphPad Software, Inc.).

[2] = In vitro metabolism rate by use of liver microsomes, mouse; format: in vitro ADME, Male CD1 mouse
Experimental: as §1, §2, §3, §4

[3] = In vitro metabolism rate by use of liver microsomes, human; format: in vitro ADME
Experimental: as §1, §2, §3, §4

[4] = Distribution in rat body (radioactivity in the brain); format: in vivo, Wistar male rats; conditions: caudal vein
Experimental: Wistar male rats (purchased from Japan SLC, Inc.) were conditioned for seven days, maintaining water and chow (commercial solid chow: F-2, product of Funabashi Farm) ad libitum, and the non-fasting rats were employed in the experiment (8-week-old at experiment).
Each of compound 23, compound 24, and [^125I]-IMPY was dissolved in a solution containing 40 mM ascorbic acid and 0.1% Tween80, to thereby adjust the concentration to 100 μCi/200 μL. Each sample was administered to each rat through the caudal vein under non-anesthetization. […] The brain was cut into the left and right parts, and each part was weighed. The right brain was placed in a vial, and radioactivity was measured by means of a gamma counter. The radioactivity relative to the administration amount was calculated. Specifically, radioactivity of the tissue and that divided by the tissue weight were calculated as % I.D. and % I.D./g-tissue weight, respectively.

[5] = Analysis of radioactive substance in the rat brain after administration (TLC); format: in vivo; conditions: rat brain homogenate 2 to 120 minutes after administration (FIG. 5)
Experimental: Compounds which had been incorporated into the rat brain were investigated. The left part of the rat brain, obtained in the above experiment (distribution in the rat body) was homogenized by means of a Potter-type homogenizer with 40-mmol/L ascorbic acid-containing PBS (4-fold amount by mass). Acetonitrile (4-fold volume with respect to homogenate) was added to the homogenate, and the mixture was filtered, to thereby remove protein. The acetonitrile layer was developed by means of a reverse phase TLC (Whatman KC18F). The TLC was brought into contact with an imaging plate, and radioactivity was detected by means of BAS-1800 (product of Fuji Film Co., Ltd.). Each of the brain homogenate obtained 2, 5, 40, 60, and 120 minutes after administration was treated with acetonitrile so as to remove protein, and extracted radioactive substances were analyzed through thin-layer chromatography (KC18F, Whatman).

- Rate of metabolism by liver microsomes [1]: 2.164 ± 0.647 pmol/min/mg protein
- Rate of metabolism by liver microsomes [2]: 0.911 ± 0.331 pmol/min/mg protein
- Rate of metabolism by liver microsomes [3]: 0.510 ± 0.137 pmol/min/mg protein
- Radioactivity in the rat brain Mean ± SD ([4]; 2 min after administration): 1.110 ± 0.027 % I.D./g
- Radioactivity in the rat brain Mean ± SD ([4]; 5 min after administration): 0.713 ± 0.098 % I.D./g
- Radioactivity in the rat brain Mean ± SD ([4]; 15 min after administration): 0.337 ± 0.019 % I.D./g
- Radioactivity in the rat brain Mean ± SD ([4]; 30 min after administration): 0.144 ± 0.021 % I.D./g
- Radioactivity in the rat brain Mean ± SD ([4]; 60 min after administration): 0.065 ± 0.002 % I.D./g
- Radioactivity in the rat brain Mean ± SD ([4]; 120 min after administration): 0.027 ± 0.001 % I.D./g
Compound: CN(C)c1ccc(-c2cn3cc([125I])ccc3n2)cc1 [^125I-IMPY, reference compound]
- Metabolites in the brain (TLC of extracted radioactive substance) [5]: provided a plurality of metabolites in the brain
